Measured values taken from PubChem BioAssay AID2060356 (Molecular Pharmacology Branch, DTP, NCI, 2025).
“And” between values parts separate entries of the source, which are not always exact repeats. Equal values may be shown once.

Test system: PDC tumor spheroids with HUVEC/MSC, viability
Experiment: Anticancer human tumor 439559-082-T-J2-PDC patient-derived colon adenocarcinoma cell line growth inhibition [TAK]
Settings: for viability, T/C: stronger effect = lower value; active means viability on the fitted dose curve at most 10% of control; inactive means the rest
Source text: Combinatorial screen of targeted agents with TAK-243 and ipatasertib in multi-cell type tumor spheroids
A high-throughput screen of multi-cell type tumor spheroids was designed to identify active combinations of targeted small molecules and TAK-243 or ipatasertib. Complex spheroids include a stromal component modeled by human endothelial cells (HUVEC) and fibroblasts modeled by human mesenchymal stem cells (MSCs). The concentration ranges selected for each drug and investigational agent were based upon clinically achievable concentrations if the clinical Cmax of the agent was known.
Compounds. The drugs and investigational agents: TAK-243 (785004), ipatasertib (767898), everolimus (733504), selumetinib (741078), bortezomib (756655), trametinib (758246), ixazomib (758254), vemurafenib (761431), dabrafenib (764134), sapanisertib (764658), alpelisib (765974), and copanlisib (816437), were obtained from the National Cancer Institute (NCI) Developmental Therapeutics Program Chemical Repository. The FDA-approved anticancer drug set is available from the NCI Developmental Therapeutics Program. […] The stock solutions were prepared in dimethyl sulfoxide (DMSO, Sigma-Aldrich, St. Louis, MO, cat. D2650) at 800-fold the tested concentration and stored at -70 degrees C prior to their use. All drugs and investigational agents were tested over a range starting from a high concentration at or near the clinical Cmax and decreasing in half-log increments. If the clinical Cmax for an agent had not been determined, the highest concentration tested was 10 microM.
NCI60 Cell Culture. NCI60 cell lines were obtained from the NCI Developmental Therapeutics Program Tumor Repository. For each lot of cells, the Repository performed Applied Biosystems AmpFLSTR Identifiler testing with PCR amplification to confirm consistency with the published Identifier STR profile for each cell line. Cells were kept in continuous culture for no more than 20 passages. The optimal seeding densities for each of the cell lines at each time point assessed were determined prior to performing the concentration response studies. Briefly, the NCI60 human tumor lines were grown as monolayers in RPMI 1640 medium supplemented with 10% FBS and 2 mmol/L L-glutamine.
An additional 2 lines were from the NCI60 cell line panel including melanomas, MALME-3M and SK-MEL-2. Pooled donor human umbilical vein endothelial cells (HUVEC, Lonza, cat. CC-2519) and human mesenchymal stem cells (hMSC, Lonza, cat. PT-2501) were purchased from Lonza (Walkersville, MD).
PDMR cell lines were grown in complete medium (DC medium): Dulbecco's modified Eagle's medium (DMEM)/F12 supplemented with 5% fetal bovine serum (FBS), 2 mM L-glutamine, 100 U/mL penicillin and 100 µg/ml streptomycin, 0.4 µg/ml hydrocortisone, 10 ng/ml epidermal growth factor (EGF) recombinant human protein, 24 µg/mL adenine, and 0.1 mg/mL primocin. During culture from frozen stock vials, PDMR cells were cultured in the same medium containing 10 µM Y-27632 (see Table 3). The PDCs were cultured in complete DMEM/F12 media without 10 microM Y-27632 dihydrochloride for at least two passages prior to the screen. The pooled donor HUVEC and hMSC were cultured in endothelial cell growth medium 2 (PromoCell, Heidelberg, Germany, cat. C-22011) and mesenchymal stem cell growth medium 2 (PromoCell, cat. C-28009), respectively. For all experiments, HUVEC and hMSC were used at passages </=5.
For the pre-screen, cell seeding densities were determined from a titration spanning the range from 5,000 to 313 cells per well. The mct-spheroids including 60% malignant cells, 25% HUVEC and 15% MSC dispensed as a mixture into U-bottom Ultra-Low Attachment 384-well plates (Corning, NY)
High-throughput Drug Combination Screening.
Prior to their inoculation into 384-well plates, malignant cells, HUVEC, and hMSC were removed from T flasks using TrypLE express (Thermo Fisher Scientific, cat. 12605036) and harvested by centrifugation for 5 min at 233 x g. […]

[1] = curve of first compound, second compound 0.3 µM
[2] = curve of first compound, second compound 0.949 µM
[3] = curve of first compound, second compound 3 µM
[4] = curve of first compound, second compound 9.49 µM
[5] = curve of first compound, second compound 30 µM
[6] = second compound 0.3 µM, first compound 0.0316 µM
[7] = second compound 0.3 µM, first compound 0.1 µM
[8] = second compound 0.949 µM, first compound 0.0316 µM
[9] = second compound 0.949 µM, first compound 0.1 µM
[10] = second compound 3 µM, first compound 0.0316 µM
[11] = second compound 3 µM, first compound 0.1 µM
[12] = second compound 9.49 µM, first compound 0.0316 µM
[13] = second compound 9.49 µM, first compound 0.1 µM
[14] = second compound 30 µM, first compound 0.0316 µM
[15] = second compound 30 µM, first compound 0.1 µM
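Further: spheroids exposed to drugs for seven days before readout.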

Cc1nc(NC(=O)N2CCCC2C(N)=O)sc1-c1ccnc(C(C)(C)C(F)(F)F)c1 (configuration not stated) + CC(C)NCC(C(=O)N1CCN(c2ncnc3c2C(C)CC3O)CC1)c1ccc(Cl)cc1
inactive: viability, T/C [6] 106% | viability, T/C [7] 98.8% | viability, T/C (second compound 0.3 µM, first compound 0.316 µM) 85% | viability, T/C (second compound 0.3 µM, first compound 1 µM) 86.8% | viability, T/C (second compound 0.3 µM, first compound 3.16 µM) 80.9% | viability, T/C (second compound 0.3 µM, first compound 10 µM) 69.6% | viability, T/C [8] 109% | viability, T/C [9] 102% | viability, T/C (second compound 0.949 µM, first compound 0.316 µM) 86.3% | viability, T/C (second compound 0.949 µM, first compound 1 µM) 85.8% | viability, T/C (second compound 0.949 µM, first compound 3.16 µM) 80.1% | viability, T/C (second compound 0.949 µM, first compound 10 µM) 70% | viability, T/C [10] 98.8% | viability, T/C [11] 102% | viability, T/C (second compound 3 µM, first compound 0.316 µM) 85.5% | viability, T/C (second compound 3 µM, first compound 1 µM) 85.6% | viability, T/C (second compound 3 µM, first compound 3.16 µM) 78.5% | viability, T/C (second compound 3 µM, first compound 10 µM) 82.3% | viability, T/C [12] 95.8% | viability, T/C [13] 91.4% | viability, T/C (second compound 9.49 µM, first compound 0.316 µM) 85% | viability, T/C (second compound 9.49 µM, first compound 1 µM) 83.1% | viability, T/C (second compound 9.49 µM, first compound 3.16 µM) 75.7% | viability, T/C (second compound 9.49 µM, first compound 10 µM) 74.2% | viability, T/C [14] 86.4% | viability, T/C [15] 91.7% | viability, T/C (second compound 30 µM, first compound 0.316 µM) 84.9% | viability, T/C (second compound 30 µM, first compound 1 µM) 79% | viability, T/C (second compound 30 µM, first compound 3.16 µM) 81.3% | viability, T/C (second compound 30 µM, first compound 10 µM) 71.5%
> 10000 nM: IC50 [1] | IC50 [2] | IC50 [3] | IC50 [4] | IC50 [5]

COC1CC2CCC(C)C(O)(O2)C(=O)C(=O)N2CCCCC2C(=O)OC(C(C)CC2CCC(OCCO)C(OC)C2)CC(=O)C(C)C=C(C)C(O)C(OC)C(=O)C(C)CC(C)C=CC=CC=C1C (configuration not stated)
inactive: viability, T/C (compound 0.000316 µM) 110% and 103% | viability, T/C (compound 0.001 µM) 97.7% and 98.1% | viability, T/C (compound 0.00316 µM) 90.7% and 89.7% | viability, T/C (compound 0.01 µM) 82.7% and 90.2% | viability, T/C (compound 0.0316 µM) 90.9% and 86% | viability, T/C (compound 0.1 µM) 91.7% and 92.3%
> 100 nM: IC50 (curve of compound)

COC1CC2CCC(C)C(O)(O2)C(=O)C(=O)N2CCCCC2C(=O)OC(C(C)CC2CCC(OCCO)C(OC)C2)CC(=O)C(C)C=C(C)C(O)C(OC)C(=O)C(C)CC(C)C=CC=CC=C1C (configuration not stated) + CC(C)NCC(C(=O)N1CCN(c2ncnc3c2C(C)CC3O)CC1)c1ccc(Cl)cc1
> 100 nM: IC50 [1] | IC50 [2] | IC50 [3] | IC50 [4] | IC50 [5]
inactive: viability, T/C (second compound 0.3 µM, first compound 0.000316 µM) 110% | viability, T/C (second compound 0.3 µM, first compound 0.001 µM) 97.1% | viability, T/C (second compound 0.3 µM, first compound 0.00316 µM) 81.7% | viability, T/C (second compound 0.3 µM, first compound 0.01 µM) 90.4% | viability, T/C [6] 83.7% | viability, T/C [7] 82% | viability, T/C (second compound 0.949 µM, first compound 0.000316 µM) 103% | viability, T/C (second compound 0.949 µM, first compound 0.001 µM) 88.6% | viability, T/C (second compound 0.949 µM, first compound 0.00316 µM) 85.9% | viability, T/C (second compound 0.949 µM, first compound 0.01 µM) 87.4% | viability, T/C [8] 87.4% | viability, T/C [9] 79.8% | viability, T/C (second compound 3 µM, first compound 0.000316 µM) 97.4% | viability, T/C (second compound 3 µM, first compound 0.001 µM) 101% | viability, T/C (second compound 3 µM, first compound 0.00316 µM) 87.6% | viability, T/C (second compound 3 µM, first compound 0.01 µM) 77.9% | viability, T/C [10] 81.5% | viability, T/C [11] 77.3% | viability, T/C (second compound 9.49 µM, first compound 0.000316 µM) 91.4% | viability, T/C (second compound 9.49 µM, first compound 0.001 µM) 88.6% | viability, T/C (second compound 9.49 µM, first compound 0.00316 µM) 81.3% | viability, T/C (second compound 9.49 µM, first compound 0.01 µM) 73.7% | viability, T/C [12] 75.2% | viability, T/C [13] 76.8% | viability, T/C (second compound 30 µM, first compound 0.000316 µM) 93.1% | viability, T/C (second compound 30 µM, first compound 0.001 µM) 91.2% | viability, T/C (second compound 30 µM, first compound 0.00316 µM) 82.8% | viability, T/C (second compound 30 µM, first compound 0.01 µM) 77.7% | viability, T/C [14] 79.1% | viability, T/C [15] 72.7%
